Assay results reported in ChEMBL document CHEMBL1201862, “PubChem BioAssay data set” (2004).
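Dose response: 5 concentrations. Exposure: 48 h. Format: 96-well plates. Endpoint: linear interpolation; highest concentration if not reached. GI50 is the concentration that inhibits growth by half.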 Active and inactive are the calls of the source. Rule as the data show it: active = GI50 up to about 1.1 µM and inactive = higher.

Tests used:
Experiment in all cases: NCI anticancer screen, dose series, 48 h
ACHN = system: ACHN
SW-620 = system: SW-620
MOLT-4 = system: MOLT-4
HCC 2998 = system: HCC 2998
M14 = system: M14
MDA-MB-231 = system: MDA-MB-231
SNB-75 = system: SNB-75
K562 = system: K562
786-0 = system: 786-0
SK-MEL-28 = system: SK-MEL-28
NCI/ADR-RES = system: NCI/ADR-RES
NCI-H226 = system: NCI-H226
OVCAR-5 = system: OVCAR-5
Hs-578T = system: Hs-578T
COLO 205 = system: COLO 205
UO-31 = system: UO-31
A549 = system: A549
IGROV-1 = system: IGROV-1
SN12C = system: SN12C
SF-268 = system: SF-268

Compound: COc1cc(/C=C2\Sc3scc(-c4cccc([N+](=O)[O-])c4)[n+]3C2=O)cc(OC)c1OC
- GI50 (ACHN): 14.9 µM (inactive)
- GI50 (SW-620): 9.1 µM (inactive)
- GI50 (MOLT-4): 3.21 µM (inactive)
- GI50 (HCC 2998): 14.5 µM (inactive)
- GI50 (M14): 11.7 µM (inactive)
- GI50 (MDA-MB-231): 7.29 µM (inactive)
- GI50 (SNB-75): 1.47 µM (inactive)
- GI50 (K562): 4.54 µM (inactive)
- GI50 (786-0): 10.4 µM (inactive)
- GI50 (SK-MEL-28): 16.1 µM (inactive)
- GI50 (NCI/ADR-RES): 17.4 µM (inactive)
- GI50 (NCI-H226): 5.2 µM (inactive)
- GI50 (OVCAR-5): 20.8 µM (inactive)
- GI50 (Hs-578T): 10.8 µM (inactive)
- GI50 (COLO 205): 3.87 µM (inactive)
- GI50 (UO-31): 6.37 µM (inactive)
- GI50 (A549): 19.2 µM (inactive)
- GI50 (IGROV-1): 14 µM (inactive)
- GI50 (SN12C): 18.1 µM (inactive)
- GI50 (SF-268): 11.8 µM (inactive)

Compound: CCO/C=C(\C(=O)OC)S(=O)(=O)c1ccc(C)cc1
- GI50 (ACHN): > 100 µM (inactive)
- GI50 (SW-620): > 100 µM (inactive)
- GI50 (MOLT-4): > 100 µM (inactive)
- GI50 (HCC 2998): > 100 µM (inactive)
- GI50 (M14): > 100 µM (inactive)
- GI50 (MDA-MB-231): > 100 µM (inactive)
- GI50 (SNB-75): > 100 µM (inactive)
- GI50 (K562): > 100 µM (inactive)
- GI50 (786-0): > 100 µM (inactive)
- GI50 (SK-MEL-28): > 100 µM (inactive)
- GI50 (NCI/ADR-RES): > 100 µM (inactive)
- GI50 (NCI-H226): > 100 µM (inactive)
- GI50 (OVCAR-5): > 100 µM (inactive)
- GI50 (Hs-578T): > 100 µM (inactive)
- GI50 (COLO 205): > 100 µM (inactive)
- GI50 (UO-31): 61.7 µM (inactive)
- GI50 (A549): > 100 µM (inactive)
- GI50 (IGROV-1): > 100 µM (inactive)
- GI50 (SN12C): > 100 µM (inactive)
- GI50 (SF-268): > 100 µM (inactive)

Compound: CCN(CC)CC(O)CNc1ccc(NCC(O)CCl)c2c1C(=O)c1ccccc1C2=O (stereo not given)
- GI50 (ACHN): 2.97 µM (inactive)
- GI50 (SW-620): 1.28 µM (inactive)
- GI50 (MOLT-4): 0.484 µM (active)
- GI50 (HCC 2998): 7.83 µM (inactive)
- GI50 (M14): 3.3 µM (inactive)
- GI50 (MDA-MB-231): 11.1 µM (inactive)
- GI50 (SNB-75): 11 µM (inactive)
- GI50 (K562): 1.27 µM (inactive)
- GI50 (786-0): 2.98 µM (inactive)
- GI50 (SK-MEL-28): 11.5 µM (inactive)
- GI50 (NCI/ADR-RES): 2.45 µM (inactive)
- GI50 (NCI-H226): 9.95 µM (inactive)
- GI50 (OVCAR-5): 15.1 µM (inactive)
- GI50 (Hs-578T): 11.6 µM (inactive)
- GI50 (COLO 205): 6.47 µM (inactive)
- GI50 (UO-31): 4.59 µM (inactive)
- GI50 (A549): 9.27 µM (inactive)
- GI50 (IGROV-1): 10 µM (inactive)
- GI50 (SN12C): 4.95 µM (inactive)
- GI50 (SF-268): 2.65 µM (inactive)

Compound: CC(C)C(Br)CCC1=CCC(Br)(Br)C1 (stereo not given)
- GI50 (ACHN): 16.9 µM (inactive)
- GI50 (SW-620): 3.52 µM (inactive)
- GI50 (MOLT-4): 3.48 µM (inactive)
- GI50 (HCC 2998): 14.9 µM (inactive)
- GI50 (M14): 3.81 µM (inactive)
- GI50 (MDA-MB-231): 5.27 µM (inactive)
- GI50 (SNB-75): 10.9 µM (inactive)
- GI50 (K562): 4.57 µM (inactive)
- GI50 (786-0): 15.7 µM (inactive)
- GI50 (SK-MEL-28): 15.6 µM (inactive)
- GI50 (NCI/ADR-RES): 22.6 µM (inactive)
- GI50 (NCI-H226): 11.9 µM (inactive)
- GI50 (OVCAR-5): 16.7 µM (inactive)
- GI50 (Hs-578T): 18.6 µM (inactive)
- GI50 (COLO 205): 15.7 µM (inactive)
- GI50 (UO-31): 10.2 µM (inactive)
- GI50 (A549): 17.9 µM (inactive)
- GI50 (IGROV-1): 3.21 µM (inactive)
- GI50 (SN12C): 4.2 µM (inactive)
- GI50 (SF-268): 16.8 µM (inactive)

Compound: N#Cc1c(-c2ccccc2)cc(-c2ccc(Cl)cc2)[nH]c1=S
- GI50 (ACHN): 21.5 µM (inactive)
- GI50 (SW-620): 28.4 µM (inactive)
- GI50 (MOLT-4): 28.1 µM (inactive)
- GI50 (HCC 2998): 31.9 µM (inactive)
- GI50 (M14): 38.9 µM (inactive)
- GI50 (MDA-MB-231): 23.4 µM (inactive)
- GI50 (SNB-75): 37.1 µM (inactive)
- GI50 (K562): 34 µM (inactive)
- GI50 (786-0): 53.3 µM (inactive)
- GI50 (SK-MEL-28): 20.3 µM (inactive)
- GI50 (NCI/ADR-RES): 39.4 µM (inactive)
- GI50 (NCI-H226): 25.6 µM (inactive)
- GI50 (OVCAR-5): 62.4 µM (inactive)
- GI50 (Hs-578T): 38.8 µM (inactive)
- GI50 (COLO 205): 25.4 µM (inactive)
- GI50 (UO-31): 24.8 µM (inactive)
- GI50 (A549): 38.4 µM (inactive)
- GI50 (IGROV-1): 26.7 µM (inactive)
- GI50 (SN12C): 39.5 µM (inactive)
- GI50 (SF-268): 41.3 µM (inactive)
